EP4722217A1, “PYRIMIDO-PYRIDINE COMPOUND, PHARMACEUTICAL COMPOSITION THEREOF AND USE THEREOF” (Sunshine Lake Pharma Co., Ltd., priority 2023, dated 2025)

Experiments:
Type in all cases: cell-based
[1] = system: pERK in KRAS G12D mutant cell line AGS; test: Inhibitory effect on intracellular pERK by In-Cell Western Assay (384-well); conditions: Homo sapiens; pERK inhibition, AGS cells, 3 h incubation; read-out: AGS, IC50 (nM) KRAS p.G12D
Method: (7) The cells were fixed. (8) The cells were washed twice with PBS. (9) The blocking solution was added and the cells were incubated at room temperature for 1 h. […] (11) The cells were washed twice with PBST (PBS + 0.05% Tween 20) for 2 minutes each time.

[2] = system: pERK in KRAS G12D mutant cell line ASPC-1; test: Inhibitory effect on intracellular pERK by In-Cell Western Assay (96-well); conditions: Homo sapiens, ASPC1; pERK inhibition, ASPC-1 cells, 2 h incubation; read-out: ASPC-1, IC50 (nM) KRAS p.G12D
Method: (2) On the first day, the following cells were revived with the corresponding culture medium and incubated in a 5% CO2 incubator at 37 °C until confluence:
(2) On the third day, the culture medium was removed, 2 mL of trypsin was added for digestion, and the cells were placed in an incubator until the cells detached. (3) 5 mL of fresh culture medium was added to resuspend the cells to terminate the digestion, and the cells were gently pipetted and centrifuged at 1000 rpm for 5 minutes at room temperature. (4) The supernatant was removed, and 5 mL of new culture medium was added to resuspend the cells and count them. (5) The cells were adjusted to the appropriate cell concentration with complete culture medium and plated in a 96-well plate. 90 µL of cells were added to each well, the cells were incubated in a 5% CO2 incubator at 37 °C overnight. (6) 10 µL of the prepared serial dilution compound (DMSO final concentration was 0.5%) was added and the cells were incubated in a 5% CO2 incubator at 37 °C for 2 h. (7) The supernatant was discarded, and 200 µL of 4% paraformaldehyde fixative was added to fix the cells. (8) The cells were washed three times with TBST. (9) The blocking solution was added and the cells were incubated at room temperature for 1 h. […]

ASPC-1 = test: 3D-CTG proliferation inhibition of KRAS G12D mutant cells; conditions: Homo sapiens, ASPC1, cell proliferation, read after the 7th day of incubation
Method: (§1) (1) On the first day, the following cells were revived with the corresponding culture medium and incubated in a 5% CO2 incubator at 37 °C until confluence:
(§2) (2) On the second day, the cells were rinsed once with PBS, preheated trypsin was added, and the cells were placed in a 37 °C 5% CO2 incubator for digestion for 3~5 minutes. The digestion was terminated by adding an appropriate amount of complete culture medium (containing 10% fetal bovine serum), and the cells were transferred to a centrifuge tube and centrifuged at 1000 rpm for 5 minutes. (3) The cells were resuspended in complete culture medium, counted, and adjusted to the appropriate cell concentration with complete culture medium. (4) 90 µl/well of cell suspension was added to a 96-well plate and incubated in a 5% CO2 incubator at 37 °C overnight. (5) Each well was added with 10 µl of the prepared 10× serial dilution compound (final DMSO concentration was 0.5%) and incubated in a 37°C 5% CO2 incubator. (6) After the 7th day of incubation, 50 µl of 3D CTG detection reagent was added to each well and the cells were shaken at 350 rpm for 20 minutes. (7) Signal values were read using an enzyme meter. (8) Data analysis: IC50 values were fitted using the nonlinear regression equation in Graphpad software. […]

Panc04.03 = test: as above; conditions: Homo sapiens, Panc 04.03, cell proliferation, read after the 7th day of incubation
Method: as §1, §2

GP2D = test: 3D-CTG proliferation inhibition of GP2D cells; conditions: cell proliferation, read after the 8th day of incubation, read-out: GP2D, IC50 (nM) KRAS G12D
Method: (§3) • (1) GP2D and HPAC cells were revived in DMEM medium containing 10% fetal bovine serum and used for experiments after the cells were recovered. • (2) On the first day, the cells were rinsed once with PBS, preheated trypsin was added, and the cells were placed in a 37 °C 5% CO2 incubator for 3-5 minutes. The digestion was terminated by adding an appropriate amount of complete culture medium (containing 10% fetal bovine serum), and the cells were transferred to a centrifuge tube and centrifuged at 1000 rpm for 5 minutes. • (3) The cells were resuspended in complete culture medium, counted, and adjusted to the appropriate cell concentration with complete culture medium. • (4) Using the ECHO 655 ultrasonic liquid handling system, 0.2 µl of the prepared 200× serial dilution compound (final DMSO concentration of 0.5%) was added to a 384-well plate. 40 µl of the cell suspension counted in step (3) was then added to each well and the plate was incubated in a 5% CO2 incubator at 37 °C. • (6) After the 8th day of incubation, 3D CTG detection reagent was added to each well. • (7) Signal values were read using Envision. • (8) Data analysis: • a) DMSO and culture medium were used to test the stability of the experimental method: • H = DMSO well • L = Culture medium well H, CV% (DMSOwell) = 100 × (SDvalueofDMSOwell/averagevalueofDMSOwell) [formula] L, CV% (correspondingculturemediumwell) = 100 × (SDvalueofculturemediumwell/average [formula] value of corresponding culture medium well) [formula] [formula] • b) IC50 values were fitted using the nonlinear regression equation in XLfit 5.5.0 software. Y = Bottom + (Top−Bottom)/(1+10^(∧)((LogIC50−X)*HillSlope)) [formula] • X: Log value of compound concentration • Y: Inhibition rate (% inh)

HPAC = test: 3D-CTG proliferation inhibition of HPAC cells; conditions: Homo sapiens, read-out: IC50 (nM) KRAS G12D, Table D-2, titled HPAC, cell proliferation, read after the 8th day of incubation, read-out: GP2D, IC50 (nM) KRAS G12D
Method: as §3, with “L, CV% (correspondingculturemediumwell) = 100 × (SDvalueofculturemediumwell/average [formula] value of corresponding culture medium well) [formula] [formula] • b) IC50 values were fitted using the nonlinear regression equation in XLfit 5.5.0 software. Y = Bottom + (Top−Bottom)/(1+10^(∧)((LogIC50−X)*HillSlope)) [formula] • X: Log value of compound concentration • Y: Inhibition rate (% inh)” left out

| SMILES | IC50 (GP2D) [nM] | further results |
| --- | --- | --- |
| C#Cc1c(F)ccc2cc(O)cc(-c3nc(C#CC)c4c(N5CC6CCC(C5)N6)nc(OCC56CC(=C)CN5CC(=C)C6)nc4c3F)c12 [Example 2] | 0.17 | IC50 [1]: 0.4 nM; IC50 [2]: 0.86 nM; IC50 (ASPC-1): 0.42 nM; IC50 (Panc04.03): 0.85 nM; IC50 (HPAC): 0.77 nM |
| C#Cc1c(F)ccc2cc(O)cc(-c3nc(C#CC)c4c(N5CC6CCC(C5)N6)nc(OCC56CCCN5CC(=C)C6)nc4c3F)c12 (centres unmarked) [Example 5] | 0.07 | – |
| C#Cc1c(F)ccc2cc(O)cc(-c3nc(C#C)c4c(N5CC6CCC(C5)N6)nc(OCC56CC(=C)CN5CC(=C)C6)nc4c3F)c12 [Example 6] | 1.6 | – |
| C=C1CN2CC(=C)CC2(COc2nc(N3CC4CCC(C3)N4)c3c(C#CC)nc(-c4cc(O)cc5ccc(F)c(CC)c45)c(F)c3n2)C1 [Example 9] | 0.19 | – |
| C=C1CN2CC(=C)CC2(COc2nc(N3CC4CCC(C3)N4)c3c(C#CC)nc(-c4cc(N)cc(Cl)c4C(F)(F)F)c(F)c3n2)C1 [Example 10] | 12.4 | – |
| C#Cc1c(F)ccc2cc(O)cc(-c3nc(C#CC)c4c(N5CC6CCC(C5)N6)nc(OCC56CCCN5CC(=CF)C6)nc4c3F)c12 (centres unmarked) [Example 11] | 0.03 | – |
